Measured values as given in ChEMBL document CHEMBL5029145, “Discovery of AZD8154, a Dual PI3Kγδ Inhibitor for the Treatment of Asthma” (J Med Chem, 2021).
Converted amounts (≈) assume the structure as drawn.

Tests used:
[1] = Half life in rat plasma at 0.5 mg/kg, iv; format: ADME, organism-based
[2] = Permeability in human Caco2 cells; format: ADME, cell-based; conditions: caco-2
[3] = target: Phosphatidylinositol 3-kinase catalytic subunit type 3 (Homo sapiens, UniProt Q8NEB9); experiment: Inhibition of PIK3C3 (unknown origin) assessed as reduction in substrate phosphorylation by FRET Adapta assay
[4] = Apparent terminal half life in rat administered via inhalation; format: ADME; conditions: in vivo, inhaled or intranasal
[5] = Thermodynamic stability assessed as onset melting temperature; format: physicochemical
[6] = target: Phosphatidylinositol 4-kinase alpha (Homo sapiens, UniProt P42356); experiment: Inhibition of PI4KA (unknown origin) assessed as reduction in substrate phosphorylation by FRET Adapta assay
[7] = target: Phosphatidylinositol 4,5-bisphosphate 3-kinase catalytic subunit alpha isoform (Homo sapiens, UniProt P42336); experiment: Inhibition of recombinant human PI3Kalpha assessed as reduction in ADP production using Dic8-PIP2 as substrate pre-treated for 15 mins followed by substrate addition measured after 60 mins by ADP-glo assay
[8] = Volume of distribution at steady state in rat at 0.5 mg/kg, iv; format: ADME, organism-based; conditions: in vivo, read-out: Vdss
[9] = target: Phosphatidylinositol 4-kinase beta (Homo sapiens, UniProt Q9UBF8); experiment: Inhibition of PI4KB (unknown origin) assessed as reduction in substrate phosphorylation by FRET Adapta assay
[10] = Solubility of compound in at pH 7.4 at 1 mg/ml using crystalline form of sample incubated for 24 hrs by HPLC MS analysis; format: physicochemical
[11] = Distribution coefficient, logD of compound at pH 7.4; format: physicochemical; conditions: octanol/water
[12] = target: Phosphatidylinositol 4-phosphate 3-kinase C2 domain-containing subunit alpha (Homo sapiens, UniProt O00443); experiment: Inhibition of PIK3C2A (unknown origin) assessed as reduction in substrate phosphorylation by FRET Adapta assay
[13] = Clearance in rat at 0.5 mg/kg, iv; format: ADME, organism-based; conditions: in vivo
[14] = target: T1, Phosphatidylinositol 4,5-bisphosphate 3-kinase catalytic subunit delta isoform (Homo sapiens, UniProt O00329); experiment: Inhibition of PI3Kdelta in anti-IgM-stimulated human JeKo-1 cells assessed as inhibition of AKT phosphorylation at Ser473 residue incubated for 60 mins by TR-FRET assay
T1 sequence (O00329 whole entry): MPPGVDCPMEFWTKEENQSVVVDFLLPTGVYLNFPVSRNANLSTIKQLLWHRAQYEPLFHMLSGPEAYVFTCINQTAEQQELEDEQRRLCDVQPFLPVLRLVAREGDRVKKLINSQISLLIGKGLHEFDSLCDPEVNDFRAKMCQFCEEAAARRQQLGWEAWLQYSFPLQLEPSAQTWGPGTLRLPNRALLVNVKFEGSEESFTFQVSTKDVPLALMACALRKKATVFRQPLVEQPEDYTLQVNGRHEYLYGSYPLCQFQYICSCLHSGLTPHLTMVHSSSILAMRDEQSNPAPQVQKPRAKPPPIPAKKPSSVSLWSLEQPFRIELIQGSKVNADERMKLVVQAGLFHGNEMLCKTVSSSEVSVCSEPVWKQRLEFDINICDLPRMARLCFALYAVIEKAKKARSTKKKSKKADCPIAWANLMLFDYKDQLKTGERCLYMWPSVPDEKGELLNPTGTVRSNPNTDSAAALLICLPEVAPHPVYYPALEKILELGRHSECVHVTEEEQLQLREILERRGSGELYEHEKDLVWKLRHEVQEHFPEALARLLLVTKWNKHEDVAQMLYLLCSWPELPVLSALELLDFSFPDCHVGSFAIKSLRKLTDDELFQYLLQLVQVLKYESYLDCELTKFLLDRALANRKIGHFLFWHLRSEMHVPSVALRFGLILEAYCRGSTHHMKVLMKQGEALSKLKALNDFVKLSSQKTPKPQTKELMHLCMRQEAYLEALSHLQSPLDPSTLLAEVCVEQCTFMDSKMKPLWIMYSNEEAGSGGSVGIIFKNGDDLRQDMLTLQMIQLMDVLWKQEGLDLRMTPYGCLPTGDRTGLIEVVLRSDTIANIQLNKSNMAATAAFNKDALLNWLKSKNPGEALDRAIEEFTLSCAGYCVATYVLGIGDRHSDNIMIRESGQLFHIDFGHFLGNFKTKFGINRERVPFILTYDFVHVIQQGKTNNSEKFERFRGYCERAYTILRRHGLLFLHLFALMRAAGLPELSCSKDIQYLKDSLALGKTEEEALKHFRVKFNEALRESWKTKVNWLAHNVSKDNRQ

[15] = target: Phosphatidylinositol 4,5-bisphosphate 3-kinase catalytic subunit gamma isoform (Mus musculus, UniProt Q9JHG7); experiment: Inhibition of PI3Kgamma in C5a-stimulated mouse RAW 264 cells assessed as inhibition of AKT phosphorylation at Ser473 residue Pretreated for 15 mins followed by C5a stimulation measured after 3 mins by HTRF assay; format: cell-based
[16] = target: T1, Phosphatidylinositol 4,5-bisphosphate 3-kinase catalytic subunit delta isoform; experiment: Inhibition of recombinant human PI3Kdelta assessed as reduction in ADP production using Dic8-PIP2 as substrate pre-treated for 15 mins followed by substrate addition measured after 60 mins by ADP-glo assay
[17] = target: Phosphatidylinositol 4,5-bisphosphate 3-kinase catalytic subunit gamma isoform (Homo sapiens, UniProt P48736); experiment: Inhibition of recombinant human PI3Kgamma assessed as reduction in ADP production using Dic8-PIP2 as substrate pre-treated for 15 mins followed by substrate addition measured after 60 mins by ADP-glo assay
[18] = target: Phosphatidylinositol 4-phosphate 3-kinase C2 domain-containing subunit beta (Homo sapiens, UniProt O00750); experiment: Inhibition of PIK3C2B (unknown origin) assessed as reduction in substrate phosphorylation by FRET Adapta assay
[19] = Dissociation constant, pKa of compound; format: physicochemical

Chain of Phosphatidylinositol 4,5-bisphosphate 3-kinase catalytic subunit alpha isoform (P42336 whole entry, canonical isoform): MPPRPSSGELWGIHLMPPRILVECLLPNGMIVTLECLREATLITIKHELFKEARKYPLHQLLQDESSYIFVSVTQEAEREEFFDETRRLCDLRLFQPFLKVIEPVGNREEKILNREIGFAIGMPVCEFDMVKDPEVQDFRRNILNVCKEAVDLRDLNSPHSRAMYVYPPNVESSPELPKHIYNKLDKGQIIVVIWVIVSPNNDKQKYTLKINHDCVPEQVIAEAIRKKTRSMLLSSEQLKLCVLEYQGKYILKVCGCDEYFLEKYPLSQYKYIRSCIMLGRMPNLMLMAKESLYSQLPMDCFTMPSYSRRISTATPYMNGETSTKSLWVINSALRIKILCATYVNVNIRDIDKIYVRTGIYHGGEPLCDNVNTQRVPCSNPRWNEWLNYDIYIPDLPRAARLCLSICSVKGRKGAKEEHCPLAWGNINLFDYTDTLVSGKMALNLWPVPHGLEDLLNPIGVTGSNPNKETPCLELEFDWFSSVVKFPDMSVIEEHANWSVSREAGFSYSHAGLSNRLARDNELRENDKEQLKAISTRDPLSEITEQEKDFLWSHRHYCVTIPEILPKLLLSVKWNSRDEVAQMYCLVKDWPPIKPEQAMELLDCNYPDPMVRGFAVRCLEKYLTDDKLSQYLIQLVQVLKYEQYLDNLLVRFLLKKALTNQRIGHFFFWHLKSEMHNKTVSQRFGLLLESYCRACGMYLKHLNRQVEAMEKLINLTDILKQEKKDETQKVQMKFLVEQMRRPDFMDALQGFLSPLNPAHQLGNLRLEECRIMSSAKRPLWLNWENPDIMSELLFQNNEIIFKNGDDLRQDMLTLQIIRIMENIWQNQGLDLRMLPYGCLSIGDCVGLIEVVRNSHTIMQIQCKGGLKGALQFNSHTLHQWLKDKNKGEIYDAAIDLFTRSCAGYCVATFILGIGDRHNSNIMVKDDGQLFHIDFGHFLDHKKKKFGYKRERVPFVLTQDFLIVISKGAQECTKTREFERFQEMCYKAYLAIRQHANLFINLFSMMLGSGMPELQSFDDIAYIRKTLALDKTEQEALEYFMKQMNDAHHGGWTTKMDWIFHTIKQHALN
Chain of Phosphatidylinositol 4,5-bisphosphate 3-kinase catalytic subunit gamma isoform (Mus musculus, UniProt Q9JHG7) (Q9JHG7 whole entry, canonical isoform): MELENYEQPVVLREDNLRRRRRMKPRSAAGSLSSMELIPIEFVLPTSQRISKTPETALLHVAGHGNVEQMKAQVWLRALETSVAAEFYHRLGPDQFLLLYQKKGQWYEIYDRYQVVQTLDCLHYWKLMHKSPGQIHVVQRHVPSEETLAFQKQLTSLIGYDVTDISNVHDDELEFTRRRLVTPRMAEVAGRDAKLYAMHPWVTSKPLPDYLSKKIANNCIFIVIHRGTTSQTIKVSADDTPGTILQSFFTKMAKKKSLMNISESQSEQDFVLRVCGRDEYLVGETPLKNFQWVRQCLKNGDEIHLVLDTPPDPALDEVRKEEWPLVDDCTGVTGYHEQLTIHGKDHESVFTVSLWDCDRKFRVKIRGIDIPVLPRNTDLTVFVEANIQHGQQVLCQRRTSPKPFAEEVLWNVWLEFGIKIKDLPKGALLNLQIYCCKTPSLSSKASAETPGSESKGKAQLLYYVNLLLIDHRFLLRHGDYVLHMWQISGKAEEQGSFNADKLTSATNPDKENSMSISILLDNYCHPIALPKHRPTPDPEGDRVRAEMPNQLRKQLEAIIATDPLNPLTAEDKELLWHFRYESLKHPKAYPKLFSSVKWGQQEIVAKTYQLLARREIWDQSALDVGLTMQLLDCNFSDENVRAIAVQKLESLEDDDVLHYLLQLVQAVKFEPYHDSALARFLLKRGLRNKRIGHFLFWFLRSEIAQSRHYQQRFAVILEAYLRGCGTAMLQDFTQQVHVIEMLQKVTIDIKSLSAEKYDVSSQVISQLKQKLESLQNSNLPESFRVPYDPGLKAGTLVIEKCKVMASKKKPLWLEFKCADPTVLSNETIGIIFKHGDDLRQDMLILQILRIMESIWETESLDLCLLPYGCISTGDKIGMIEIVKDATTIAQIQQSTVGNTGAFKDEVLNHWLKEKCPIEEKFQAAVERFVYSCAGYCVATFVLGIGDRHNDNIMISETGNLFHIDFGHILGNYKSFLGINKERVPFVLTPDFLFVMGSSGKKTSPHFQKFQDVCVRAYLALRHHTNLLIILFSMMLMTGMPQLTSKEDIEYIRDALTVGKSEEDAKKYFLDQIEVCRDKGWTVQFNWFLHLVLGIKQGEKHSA
Chain of Phosphatidylinositol 3-kinase catalytic subunit type 3 (Q8NEB9 whole entry): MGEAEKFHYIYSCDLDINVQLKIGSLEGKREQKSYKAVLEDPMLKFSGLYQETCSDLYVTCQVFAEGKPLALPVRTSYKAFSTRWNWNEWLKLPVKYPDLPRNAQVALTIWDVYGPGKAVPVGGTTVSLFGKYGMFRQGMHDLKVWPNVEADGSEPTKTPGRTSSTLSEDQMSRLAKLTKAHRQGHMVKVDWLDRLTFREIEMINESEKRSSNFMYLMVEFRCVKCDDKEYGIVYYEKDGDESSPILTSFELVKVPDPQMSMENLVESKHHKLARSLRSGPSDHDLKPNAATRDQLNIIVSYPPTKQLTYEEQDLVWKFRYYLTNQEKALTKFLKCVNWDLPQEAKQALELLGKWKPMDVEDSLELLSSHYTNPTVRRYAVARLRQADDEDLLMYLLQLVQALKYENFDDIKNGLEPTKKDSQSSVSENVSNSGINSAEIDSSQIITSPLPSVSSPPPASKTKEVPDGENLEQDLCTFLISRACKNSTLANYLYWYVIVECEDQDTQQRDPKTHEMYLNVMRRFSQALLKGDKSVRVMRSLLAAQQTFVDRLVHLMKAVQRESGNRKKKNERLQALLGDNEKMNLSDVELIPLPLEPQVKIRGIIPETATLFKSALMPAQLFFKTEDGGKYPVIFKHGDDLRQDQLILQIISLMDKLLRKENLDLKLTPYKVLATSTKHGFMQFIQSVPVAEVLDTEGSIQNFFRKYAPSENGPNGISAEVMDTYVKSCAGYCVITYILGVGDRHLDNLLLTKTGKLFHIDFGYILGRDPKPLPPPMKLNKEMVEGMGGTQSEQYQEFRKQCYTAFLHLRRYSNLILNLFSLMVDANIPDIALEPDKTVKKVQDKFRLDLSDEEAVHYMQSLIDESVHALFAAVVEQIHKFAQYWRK
Chain of Phosphatidylinositol 4,5-bisphosphate 3-kinase catalytic subunit gamma isoform (Homo sapiens, UniProt P48736) (P48736 whole entry, the tested form may be a part, canonical isoform): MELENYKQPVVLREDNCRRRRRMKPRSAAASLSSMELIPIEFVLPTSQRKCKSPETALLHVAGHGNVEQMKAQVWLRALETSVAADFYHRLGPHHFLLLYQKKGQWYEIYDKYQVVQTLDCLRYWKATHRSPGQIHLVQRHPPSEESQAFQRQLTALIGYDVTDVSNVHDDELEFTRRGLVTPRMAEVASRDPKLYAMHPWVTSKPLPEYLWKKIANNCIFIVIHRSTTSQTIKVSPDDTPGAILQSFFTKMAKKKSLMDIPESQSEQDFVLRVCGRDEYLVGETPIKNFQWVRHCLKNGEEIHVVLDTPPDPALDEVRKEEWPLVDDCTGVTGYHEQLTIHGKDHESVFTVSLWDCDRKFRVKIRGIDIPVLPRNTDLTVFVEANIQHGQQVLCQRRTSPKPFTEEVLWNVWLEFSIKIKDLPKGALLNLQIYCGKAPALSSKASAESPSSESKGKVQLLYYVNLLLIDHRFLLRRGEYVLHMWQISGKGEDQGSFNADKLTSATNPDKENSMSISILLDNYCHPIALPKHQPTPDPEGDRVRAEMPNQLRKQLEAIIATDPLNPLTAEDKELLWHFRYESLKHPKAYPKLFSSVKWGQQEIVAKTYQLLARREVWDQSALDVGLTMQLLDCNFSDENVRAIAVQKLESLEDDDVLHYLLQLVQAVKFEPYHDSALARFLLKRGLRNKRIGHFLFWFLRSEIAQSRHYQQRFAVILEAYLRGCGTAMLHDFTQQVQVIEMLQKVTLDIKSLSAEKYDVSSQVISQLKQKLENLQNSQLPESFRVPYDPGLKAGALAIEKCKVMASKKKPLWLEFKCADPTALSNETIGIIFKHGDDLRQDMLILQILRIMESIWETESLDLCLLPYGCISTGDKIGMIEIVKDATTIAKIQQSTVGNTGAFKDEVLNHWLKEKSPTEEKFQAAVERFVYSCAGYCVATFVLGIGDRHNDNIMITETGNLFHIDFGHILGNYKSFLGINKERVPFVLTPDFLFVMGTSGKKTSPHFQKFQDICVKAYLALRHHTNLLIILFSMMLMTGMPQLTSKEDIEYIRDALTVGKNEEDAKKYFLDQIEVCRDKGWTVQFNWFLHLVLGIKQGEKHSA
Chain of Phosphatidylinositol 4-kinase beta (Q9UBF8 whole entry): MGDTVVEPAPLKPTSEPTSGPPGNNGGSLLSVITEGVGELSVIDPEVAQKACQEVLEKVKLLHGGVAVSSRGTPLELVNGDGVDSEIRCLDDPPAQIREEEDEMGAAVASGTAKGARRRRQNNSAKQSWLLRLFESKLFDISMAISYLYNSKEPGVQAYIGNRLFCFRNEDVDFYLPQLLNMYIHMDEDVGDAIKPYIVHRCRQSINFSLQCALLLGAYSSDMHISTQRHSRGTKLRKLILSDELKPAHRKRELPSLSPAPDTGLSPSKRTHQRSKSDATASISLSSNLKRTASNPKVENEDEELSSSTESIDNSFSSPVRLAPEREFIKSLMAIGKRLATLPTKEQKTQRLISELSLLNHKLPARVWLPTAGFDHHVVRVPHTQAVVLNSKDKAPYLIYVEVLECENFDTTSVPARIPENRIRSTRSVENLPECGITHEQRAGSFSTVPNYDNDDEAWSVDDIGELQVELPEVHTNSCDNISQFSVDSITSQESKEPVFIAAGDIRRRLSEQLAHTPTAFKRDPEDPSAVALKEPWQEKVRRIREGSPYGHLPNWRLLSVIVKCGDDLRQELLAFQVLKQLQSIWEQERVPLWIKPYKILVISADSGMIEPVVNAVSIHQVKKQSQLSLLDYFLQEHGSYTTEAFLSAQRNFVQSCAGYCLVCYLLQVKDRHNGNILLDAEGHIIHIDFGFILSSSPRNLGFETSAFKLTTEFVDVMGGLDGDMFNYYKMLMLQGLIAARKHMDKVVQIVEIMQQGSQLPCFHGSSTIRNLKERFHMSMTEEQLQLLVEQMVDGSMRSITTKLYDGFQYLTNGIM

Question: Which half-life [1] does the source give for Cc1nc(Nc2cccc(N3CCOCC3=O)n2)sc1-c1cc2c(c(S(=O)(=O)NC3COC3)c1)C(=O)N([C@@H](C)C1CC1)C2 here?
Answer: 0.7 h

Question: And the permeability [2]?
Answer: Impermeable

Question: And the IC50 [3]?
Answer: 31.6 nM

Question: And the half-life [4]?
Answer: 4.2 h

Question: What about the Tm [5] of the same molecule?
Answer: 187 °C

Question: What about the IC50 [6] of the same molecule?
Answer: > 10000 nM

Question: What about the IC50 [7] of the same molecule?
Answer: 100 nM

Question: And the Vd [8]?
Answer: 5.4 L/kg

Question: And the IC50 [9]?
Answer: 501 nM

Question: And the solubility thermodynamic at 24 h [10]?
Answer: 0.337 µM (≈ 0.211 µg/mL)

Question: What about the logD [11] of the same molecule?
Answer: 3.5

Question: And the IC50 [12]?
Answer: 3160 nM

Question: What about the clearance [13] of the same molecule?
Answer: 136 mL/min/kg

Question: With Cc1nc2sc1-c1cc3c(c(c1)S(=O)(=O)NCCOCCNC(=O)c1cccc(n1)N2)C(=O)N([C@@H](C)C1CC1)C3 as the molecule, how does the half-life [1] read?
Answer: 1.8 h

Question: And the IC50 [14]?
Answer: 2 nM

Question: What about the permeability [2] of the same molecule?
Answer: Permeable

Question: What about the IC50 [3] of the same molecule?
Answer: 25.1 nM

Question: And the IC50 [15]?
Answer: 0.794 nM

Question: What about the half-life [4] of the same molecule?
Answer: 6.9 h

Question: What about the Tm [5] of the same molecule?
Answer: 377 °C

Question: And the IC50 [16]?
Answer: 0.631 nM

Question: And the IC50 [17]?
Answer: 2.51 nM

Question: What about the IC50 [6] of the same molecule?
Answer: > 10000 nM

Question: What about the IC50 [18] of the same molecule?
Answer: 0.794 nM

Question: What about the IC50 [7] of the same molecule?
Answer: 39.8 nM

Question: What about the Vd [8] of the same molecule?
Answer: 8.6 L/kg

Question: What about the IC50 [9] of the same molecule?
Answer: 20 nM

Question: And the solubility thermodynamic at 24 h [10]?
Answer: 0.084 µM (≈ 0.0489 µg/mL)

Question: What about the logD [11] of the same molecule?
Answer: 3.7

Question: And the IC50 [12]?
Answer: 316 nM

Question: And the clearance [13]?
Answer: 110 mL/min/kg

Question: For Cc1nc2sc1-c1cc3c(c(c1)S(=O)(=O)NCCN(C)CCNC(=O)c1cccc(n1)N2)C(=O)N([C@@H](C)C1CC1)C3, which half-life [1] is on record?
Answer: 1.8 h

Question: And the IC50 [14]?
Answer: 3.16 nM

Question: What about the permeability [2] of the same molecule?
Answer: Impermeable

Question: What about the pKa [19] of the same molecule?
Answer: 6.4

Question: What about the IC50 [15] of the same molecule?
Answer: 1.58 nM

Question: What about the half-life [4] of the same molecule?
Answer: 7.5 h

Question: And the Tm [5]?
Answer: 349 °C

Question: And the IC50 [16]?
Answer: 0.501 nM

Question: And the IC50 [17]?
Answer: 1.58 nM

Question: What about the IC50 [7] of the same molecule?
Answer: 39.8 nM

Question: What about the Vd [8] of the same molecule?
Answer: 7.3 L/kg

Question: And the solubility thermodynamic at 24 h [10]?
Answer: 1.09 µM (≈ 0.649 µg/mL)

Question: What about the logD [11] of the same molecule?
Answer: 3.9

Question: And the clearance [13]?
Answer: 83 mL/min/kg
